Data taken from patent US20250340577A1, “BETA-LACTOMASE INHIBITORS AND USES THEREOF” (Case Western Reserve University, priority 2021, published 2025).

Experiments:
18SH = assay: MIC of antibiotics in combination with 10 μg/mL of ceftolozane-like BATSIs; format: cell-based; conditions: CAZ alone
blaPDC-3E221K = assay: as above; format: cell-based; conditions: CAZ alone
blaCMY-2 = assay: as above; format: cell-based; conditions: CAZ alone
blaADC-7 = assay: as above; format: cell-based; conditions: CAZ alone
M9 clinical = assay: as above; format: cell-based; conditions: CAZ alone
A. baumannii 0057 = assay: MIC with cefepime, agar microdilution, CLSI; format: cell-based; conditions: cefepime alone; ADC-7
Procedure: (§1) Minimum inhibitory concentration (MIC) of MB076 and derivatives (PCF_038-043) in combination with cefepime.
(§2) MICs were determined by the Agar microdilution method, following CLSI guidelines. Compounds were tested at fixed concentration of 4 ug/ml in combination with cefepime.

K. pneumoniae ST258 B5 = assay: MIC with cefepime, agar microdilution, CLSI; format: cell-based; conditions: cefepime alone; KPC-2
Procedure: as §1, §2

E. coli ATCC BAA202 = assay: MIC with cefepime, agar microdilution, CLSI; format: cell-based; conditions: cefepime alone; SHV-1
Procedure: as §1, §2

E. coli DH10B pBC-SK P99 = assay: MIC with cefepime, agar microdilution, CLSI; format: cell-based; conditions: cefepime alone
Procedure: as §1, §2

K. pneumoniae 427 = assay: MIC with cefepime, agar microdilution, CLSI; format: cell-based; conditions: cefepime alone; TEM-1, SHV-1, CTX-M-3
Procedure: as §1, §2

E. coli pLTCF2 = assay: MIC with cefepime, agar microdilution, CLSI; format: cell-based; conditions: cefepime alone
Procedure: as §1, §2

[1] = tested on: E. coli DH10B pBC-SK PDC-3; assay: MIC with cefepime, agar microdilution, CLSI; format: cell-based; conditions: cefepime alone
Procedure: as §1, §2

E. coli 29838 = assay: MIC with cefepime, agar microdilution, CLSI; format: cell-based; conditions: cefepime alone; CTX-M-14, TEM-1
Procedure: as §1, §2

[2] = tested on: E. coli DH10B pBC-SK control; assay: MIC with cefepime, agar microdilution, CLSI; format: cell-based; conditions: cefepime alone; B-lactamases none
Procedure: as §1, §2

K. pneumoniae 253 = assay: MIC with cefepime, agar microdilution, CLSI; format: cell-based; conditions: cefepime alone; TEM-12, SHV-5, CTX-M
Procedure: as §1, §2

K. pneumoniae 266 = assay: MIC with cefepime, agar microdilution, CLSI; format: cell-based; conditions: cefepime alone; SHV-5
Procedure: as §1, §2

K. pneumoniae 34700 = assay: MIC with cefepime, agar microdilution, CLSI; format: cell-based; conditions: cefepime alone; CTX-M-15, SHV, TEM
Procedure: as §1, §2

[3] = tested on: E. coli DH10B pBC-SK KPC-2; assay: MIC with cefepime, agar microdilution, CLSI; format: cell-based; conditions: cefepime alone
Procedure: as §1, §2

K. pneumoniae ST258 C3 = assay: MIC with cefepime, agar microdilution, CLSI; format: cell-based; conditions: cefepime alone; KPC-3
Procedure: as §1, §2

[4] = tested on: E. coli DH10B pBC-SK SHV-2; assay: MIC with cefepime, agar microdilution, CLSI; format: cell-based; conditions: cefepime alone
Procedure: as §1, §2

[5] = tested on: K. pneumoniae original KPC-2; assay: MIC with cefepime, agar microdilution, CLSI; format: cell-based; conditions: cefepime alone
Procedure: as §1, §2

E. coli pLTCF1 = assay: MIC with cefepime, agar microdilution, CLSI; format: cell-based; conditions: cefepime alone; CTX-M group 9
Procedure: as §1, §2

K. pneumoniae ST17 = assay: MIC with cefepime, agar microdilution, CLSI; format: cell-based; conditions: cefepime alone; KPC-2, TEM, SHV, CTX-M-Group 1
Procedure: as §1, §2

K. pneumoniae 255 = assay: MIC with cefepime, agar microdilution, CLSI; format: cell-based; conditions: cefepime alone; TEM-1, SHV-2
Procedure: as §1, §2

blaCTXM-9 = assay: MIC of antibiotics in combination with 10 μg/mL of ceftolozane-like BATSIs; format: cell-based; conditions: FEP alone
K. pneum blaKPC-2 = assay: as above; format: cell-based; conditions: FEP alone
[6] = tested on: Klebsiella pneumonia/BAA-1705; assay: MIC of MB076 alone or in combination with cefepime or meropenem; format: cell-based; conditions: Klebsiella pneumoniae, BAA1705; single agent; read-out: MIC
Procedure: as §2

[7] = tested on: Klebsiella pneumonia/FDA-CDC AR-BANK#0098; assay: as above; format: cell-based; conditions: Klebsiella pneumoniae; single agent; read-out: MIC
Procedure: as §2

[8] = tested on: Klebsiella pneumonia/FDA-CDC AR-BANK#0097; assay: as above; format: cell-based; conditions: Klebsiella pneumoniae; single agent; read-out: MIC
Procedure: as §2

K. pneumoniae Kp1 = assay: Survival of mice infected IV with K. pneumoniae Kp1; format: in vivo; conditions: C57BL/6 mice infected IV with KP1; treated IP at infection, 18 h and 24 h; cefepime 100 mg/kg/dose; cefepime+MB076 at 1:4 ratio
Procedure: FIG. 1 illustrates the survival curve of mice infected IV with K. pneumoniae Kp1 and treated with cefepime alone or in combination with MB076. Five male C57BL/6 mice per treatment were infected IV via the tail-vein with 2.1×10^8 CFU/mouse and treated with placebo control (phosphate-buffered saline), cefepime (100 mg/kg/dose), or cefepime and MB076.
To determine […] activity of MB076 we used cefepime with or without MB076 in mice infected IV with the pan drug resistant strain KP1 and treated IP at the time of infection with placebo control, cefepime, or cefepime+MB076 (at 1:4 ratio). Doses were repeated the following morning and afternoon (18 h and 24 h after infection, respectively). All mice treated with placebo or cefepime alone died, whereas all mice treated with either ratio of MB076 plus cefepime survived.

K. pneum KPC-Kpn = assay: MIC of antibiotics in combination with 10 μg/mL of ceftolozane-like BATSIs; format: cell-based; conditions: FEP alone
NDM-1 pHSG298 = assay: as above; format: cell-based; conditions: IMI alone
HUMC1 Abspp = assay: as above; format: cell-based; conditions: SULB alone

## CC(C)(O/N=C(\C(=O)N[C@@H]1C(=O)N2C(C(=O)[O-])=C(C[n+]3ccccc3)CS[C@H]12)c1csc(N)n1)C(=O)O [CAZ, ceftazidime, reference compound]
18SH
  MIC of antibiotic: CAZ 64 mg/mL
blaPDC-3E221K
  MIC of antibiotic: CAZ 32 mg/mL
blaCMY-2
  MIC of antibiotic: CAZ 128 mg/mL
blaADC-7
  MIC of antibiotic: CAZ 16 mg/mL
M9 clinical
  MIC of antibiotic: CAZ >32 mg/mL

## CO/N=C(\C(=O)N[C@@H]1C(=O)N2C(C(=O)[O-])=C(C[N+]3(C)CCCC3)CS[C@H]12)c1csc(N)n1 [Cefepime, cefepime, reference compound]
A. baumannii 0057
  MIC of cefepime: 64 µg/mL
K. pneumoniae ST258 B5
  MIC of cefepime: 32 µg/mL
E. coli ATCC BAA202
  MIC of cefepime: 1 µg/mL
E. coli DH10B pBC-SK P99
  MIC of cefepime: < 0.25 µg/mL
K. pneumoniae 427
  MIC of cefepime: 8 µg/mL
E. coli pLTCF2
  MIC of cefepime: 1 µg/mL
[1]
  MIC of cefepime: < 0.25 µg/mL
E. coli 29838
  MIC of cefepime: 4 µg/mL
[2]
  MIC of cefepime: < 0.25 µg/mL
K. pneumoniae 253
  MIC of cefepime: 32 µg/mL
K. pneumoniae 266
  MIC of cefepime: 2 µg/mL
K. pneumoniae 34700
  MIC of cefepime: 32 µg/mL
[3]
  MIC of cefepime: 8 µg/mL
K. pneumoniae ST258 C3
  MIC of cefepime: 8 µg/mL
[4]
  MIC of cefepime: 4 µg/mL
[5]
  MIC of cefepime: 8 µg/mL
E. coli pLTCF1
  MIC of cefepime: 8 µg/mL
K. pneumoniae ST17
  MIC of cefepime: 64 µg/mL
K. pneumoniae 255
  MIC of cefepime: 4 µg/mL
blaCTXM-9
  MIC of antibiotic: FEP 8 mg/mL
K. pneum blaKPC-2
  MIC of antibiotic: 16/32
[6]
  MIC: > 32 µg/mL
[7]
  MIC: 32 µg/mL
[8]
  MIC: > 32 µg/mL
K. pneumoniae Kp1
  Survival of infected mice: died
K. pneum KPC-Kpn
  MIC of antibiotic: FEP 32 mg/mL

## C[C@@H](O)[C@H]1C(=O)N2C(C(=O)O)=C(SCCN=CN)C[C@H]12 [IMI]
NDM-1 pHSG298
  MIC of antibiotic: IMI 8 mg/mL

## CC1(C)[C@H](C(=O)O)N2C(=O)C[C@H]2S1(=O)=O [SULB, sulbactam]
HUMC1 Abspp
  MIC of antibiotic: SULB 4 mg/mL
